Source: publication PMC12540922, “Selective Antimicrobial and Cytotoxic Effects of Hop Compounds to Combat Poultry Antimicrobial Resistance” (MicrobiologyOpen, 2025)
In brackets after ≈: the same amount, converted by molar mass. Entries after “also recorded” stand apart in the source; their conditions may differ. Structures can show the parent of a compound that is named as a salt. One block for each compound: values may come before it.

Experiments:
M. luteus = test system: M. luteus; parameters: method as in Seniya et al. [2012]; details: against M. luteus; ref Seniya et al. [2012]; cited from earlier work
[1] = MTT based cell viability assay (cytotoxic activity); details: chicken, UMNSAH/DF-1 chicken fibroblast cells, UMNSAH/DF-1, 48 h treatment, mean ± SD
Protocol: UMNSAH/DF‐1 cell line was purchased from Cytion (Eppelheim, Germany). The cells were maintained in Dulbecco's Modified Eagle Medium (DMEM, Sigma‐Aldrich, St. Louis, USA) containing 10% heat‐inactivated fetal bovine serum (FBS, Sigma‐Aldrich, St. Louis, USA) and cultured at 37°C and 5% CO2 in a humidified atmosphere. Cell lines were serially passaged after being detached with Accutase solution (Sigma‐Aldrich, St. Louis, USA).
The hop compounds were investigated for their cytotoxic effect on the chicken cell line UMNSAH/DF‐1, using the 3‐(4,5‐dimehtylthiazol‐2‐yl)‐2,5‐diphenyltetrazolium bromide (MTT) based cell viability assay. Cells were seeded in 96‐well microtiter plates (Sarstedt, Nümbrecht, Germany) with a cell density of 0.05 × 10^6 cells per mL and 100 µL per well and incubated for 24 h (37°C, 5% CO2). After that the medium was discarded and a dilution series of hop compounds in DMEM was added to the wells (100 µL), ranging from theoretical concentrations of 200 µg mL^−1 to 20 ng mL^−1. For vitality control, 20% dimethyl sulfoxide (DMSO) (TH Geyer, Renningen, Germany) was added, and for growth control, culture medium was added. The cytotoxic measurements were also performed with gentamicin sulfate as a control. Treated cells were further incubated for 48 h (37°C, 5% CO2). […] Means and SDs were calculated from two biological duplicates, each consisting of three technical replicates.

[2] = test system: Bacillus subtilis (DSM 23778); experiment: Broth dilution assay, antibacterial activity; format: cell-based; details: for MIC50: Bacillus subtilis, DSM23778, B. subtilis, concentration inhibiting 50% of growth rate, TSB medium, 28°C, 24 h, mean ± SD; for Selectivity index (SI), quotient of IC50 and MIC50: IC50 UMNSAH/DF-1 / MIC50 B. subtilis
Protocol: Bacillus subtilis (DSM 23778) was obtained from DSMZ (German Collection of Microorganisms and Cell Cultures GmbH). It was cultured on tryptic soy broth (TSB, DSMZ #545) agar plates or in TSB containing 17 g L^−1 peptone from casein, 3 g L^−1 peptone from soy, 2.5 g L^−1 D‐(+)‐glucose, 5 g L^−1 NaCl, and 2.5 g L^−1 K2HPO4 (Carl Roth, Karlsruhe, Germany) under aerobic conditions at 28°C.
(§1) Antibacterial activity of hop compounds against Gram‐positive M. luteus and B. subtilis was analyzed using Broth Dilution Assay. Twofold dilutions of hop compounds were prepared in NB or TSB medium, ranging from theoretical concentrations of 500 to 0.5 µg mL^−1 and transferred to 48‐well microtiter plates (Sarstedt, Nuembrecht, Germany). Gentamicin sulfate was used as a positive control. The optical density (OD) of a preculture prepared on the previous day was measured at 600 nm in a spectrophotometer (Implen, Muenchen, Germany). The inoculum was then diluted with NB or TSB medium to the desired OD600 nm of 0.1 and transferred to all wells (150 µL) except the sterile control, which consists only of medium. The ODs of the cultures were measured every hour at 750 nm using a plate reader (Tecan, Maennedorf, Switzerland) for 24 h. In the meantime, the plates were incubated at 37°C or 28°C without shaking. The chosen wavelength of 750 nm resulted from previous experiments with hop extracts to avoid an overlap of the absorption spectrum with chlorophyll (Guidi et al. [2017]). The growth rates were obtained from the exponential range of the generated growth curves. All values were normalized to the growth control (without hop compounds). MIC50 (minimum concentration of a substance that inhibits the growth of 50% of the bacteria tested) values were calculated by nonlinear regression using GraphPad Prism model “log(inhibitor) versus response,” where the basal response was subtracted and the bottom was set to a constant value (0). Means and standard deviations (SDs) were calculated from two biological duplicates, each consisting of three technical replicates.

[3] = test system: Micrococcus luteus (DSM 1605); experiment: Broth dilution assay, antibacterial activity; format: cell-based; details: for MIC50: Micrococcus luteus, DSM1605, M. luteus, concentration inhibiting 50% of growth rate, NB medium, 37°C, 24 h, mean ± SD
Protocol: Micrococcus luteus (DSM 1605) was obtained from DSMZ (German Collection of Microorganisms and Cell Cultures GmbH). It was cultured on nutrient agar or in nutrient broth (NB, DSMZ #1) containing 5 g L^−1 peptone from casein (Carl Roth, Karlsruhe, Germany) and 3 g L^−1 meat extract (Carl Roth, Karlsruhe, Germany) under aerobic conditions at 37°C.
as §1

[4] = test system: human prostate (PC3) and colon (HT29) cancer cell lines; parameters: method as in Farag and Wessjohann [2013]; details: ref Farag and Wessjohann [2013]; cited from earlier work
[5] = Solubility of hop compounds in aqueous media (HPLC of supernatant); format: physicochemical; details: 10% (v/v) ethanol; for Solubility in aqueous medium (in words): DMEM with/without 10% FBS, NB, TSB, theoretical 1 mg mL^−1; for solubility: culture media DMEM, NB and TSB, aqueous with cosolvent or surfactant or cyclodextrin, kinetic from dmso stock, in the media selected (DMEM, NB, TSB), read-out: Solubility limit
Protocol: High‐performance liquid chromatography (HPLC) measurements were performed using an NUCLEODUR C18 Gravity‐SB (3 µm, 250 × 2 mm) column equipped with a precolumn (Machery Nagel, Düren, Germany) in a Shimadzu HPLC system (Kyoto, Japan). The flow rate was set to 0.6 mL min^−1 at 40°C using 80% methanol/20% phosphoric acid (0.5% [v/v] in H2O) as mobile phase. Media samples were 10‐fold diluted in the mobile phase, incubated for 10 min at 40°C and centrifuged at 10,000g for 10 min. 10 μL of filtered (polytetrafluoroethylene, 0.2 µm) samples was injected for analysis. Identification and quantification of isoxanthohumol, xanthohumol, co‐/n‐/adhumulone, co‐/n‐/adlupulone, and co‐/n‐/adisohumulone by a UV‐Detector (314 nm for 0–24 min, and 270 nm for 24.01–45 min) were performed by corresponding standard curves. The preparation of hop compound solutions was carried out analogously for all three media NB, TSB, and DMEM for use in bacterial and avian cell culture. Hop compounds were provided by Hopsteiner (Mainburg, Germany) in the following purities: isoxanthohumol (81.0%), xanthohumol (90.0%), humulone (88.5%), lupulone (74.3%), and isohumulone (91.0%). The hop compounds were dissolved in ethanol to 10 mg mL^−1. From this stock solution, 1:10 dilutions were prepared in the respective medium, resulting in precipitation due to their hydrophobic character. After centrifugation (10,000g, 10 min), the clear supernatant was transferred to a new tube and used for further experiments. […] This is why the actual concentration of the compounds in the aqueous medium was analyzed using HPLC and used for subsequent calculations. Due to the hydrophobic character of hop pure compounds, a complete dissolution in an aqueous medium cannot be assumed. […] To assess the influence of FBS on solubility, DMEM without serum was also tested. For humulone, lupulone, and isohumulone, the three derivatives (co‐/n‐/ad‐) are considered together in this figure and also in the following.

[6] = test system: A-2780 ovarian cancer cell line; parameters: method as in Miranda et al. [1999]; details: ref Miranda et al. [1999], cited from earlier work
[7] = test system: MCF-7 breast cancer cell line; parameters: method as in Miranda et al. [1999]; details: ref Miranda et al. [1999], cited from earlier work
[8] = test system: normal human fibroblasts (BJ cells); parameters: method as in Klimek et al. ([2021]); details: ref Klimek et al. ([2021]); cited from earlier work
[9] = test system: normal murine hepatocytes (AML 12 cell line); parameters: method as in Ho et al. [2008]; details: ref Ho et al. [2008]; cited from earlier work
[10] = read-out: IC50 (antiproliferative effect)

SMILES: CC1(C)S[C@@H]2[C@H](NC(=O)[C@H](N)c3ccccc3)C(=O)N2[C@H]1C(=O)O [ampicillin]
MIC90 (M. luteus): 2500 mg/L (≈ 7150 µM)

SMILES: CO/N=C(\C(=O)N[C@@H]1C(=O)N2C(C(=O)O)=C(CSc3nc(=O)c(=O)[nH]n3C)CS[C@H]12)c1csc(N)n1 [ceftriaxone]
MIC90 (M. luteus): 500 mg/L (≈ 902 µM)

MIC50 [2]: 0.73 ± 0.2 mg/L | MIC50 [3]: 0.26 ± 0.08 mg/L
SMILES: CNC(C)C1CCC(N)C(OC2C(N)CC(N)C(OC3OCC(C)(O)C(NC)C3O)C2O)O1 (stereo not drawn) [gentamicin sulfate, reference compound]
IC50 at 48 h [1]: 1440 ± 390 mg/L

Solubility in aqueous medium (in words) [5]: highest | solubility [5]: ~1 mg/mL (≈ 2760 µM)
SMILES: CC(C)=CCC1C(=O)C(C(=O)CC(C)C)=C(O)C(O)(CC=C(C)C)C1=O (stereo not drawn) [humulone]
IC50 [4]: 13.2 to 15.5 mg/L | Selectivity index (SI), quotient of IC50 and MIC50 [2]: around 6

SMILES: COc1cc(O)c(CC=C(C)C)c2c1C(=O)CC(c1ccc(O)cc1)O2 (stereo not drawn) [isoxanthohumol]
Times less effective than xanthohumol [6]: 35 times | Solubility in aqueous medium (in words) [5]: minimal; also recorded: moderately dissolved; also recorded: limited solubility | Effect compared with xanthohumol (in words) [7]: comparable effect

MIC50 [2]: 0.1 ± 0.0029 mg/L (≈ 0.241 µM) | solubility [5]: ~1 mg/mL (≈ 2410 µM) | MIC50 [3]: 1.5 ± 0.48 mg/L (≈ 3.62 µM)
SMILES: CC(C)=CCC1=C(O)C(C(=O)CC(C)C)=C(O)C(CC=C(C)C)(CC=C(C)C)C1=O [lupulone]
IC50 at 48 h [1]: 1.5 ± 0.034 mg/L (≈ 3.62 µM) | IC50 [4]: 2.4 to 8.1 mg/L

SMILES: [H]/N=C(/N)N[C@H]1[C@H](O)[C@@H](O)[C@H](O[C@@H]2O[C@@H](C)[C@](O)(C=O)[C@H]2O[C@@H]2O[C@@H](CO)[C@H](O)[C@@H](O)[C@@H]2NC)[C@@H](N/C(N)=N\[H])[C@@H]1O [streptomycin]
MIC90 (M. luteus): 500 mg/L (≈ 860 µM)

Solubility in aqueous medium (in words) ([5]; listed as Xanthohumol): limited solubility | MIC50 [3]: 0.95 ± 0.04 mg/L (≈ 2.68 µM)
SMILES: COc1cc(O)c(CC=C(C)C)c(O)c1C(=O)/C=C/c1ccc(O)cc1 [xanthohumol]
IC50 [8]: 26.56 mg/L (≈ 74.9 µM) | IC50 [6, 10]: 0.52 µM | IC50 [9]: 211 µM | Selectivity index (SI), quotient of IC50 and MIC50 [2]: around 6 | Solubility in aqueous medium (in words) [5]: minimal; also recorded: only a small proportion of xanthohumol could be recovered | IC50 [7, 10]: 13.3 µM | Selectivity index (SI), quotient of IC50 and MIC50 ([3]; IC50 UMNSAH/DF-1 / MIC50 M. luteus): 5.5 ± 0.36
